Data as given in PMC3513558 (European journal of medicinal chemistry, 2012).
“Also recorded” adds a separate entry of the source.

Target: intracellular HCV NS5B RdRp activity in BHK-NS5B-FRLuc reporter cells (Hepatitis C virus genotype 1b, UniProt P26663)
Assay: BHK-NS5B-FRLuc reporter assay, intracellular NS5B RdRp activity
Format: cell-based
Details: 100 µM, 42 hours, RLuc/FLuc vs DMSO

Chain of intracellular HCV NS5B RdRp activity in BHK-NS5B-FRLuc reporter cells (P26663 2420-3010): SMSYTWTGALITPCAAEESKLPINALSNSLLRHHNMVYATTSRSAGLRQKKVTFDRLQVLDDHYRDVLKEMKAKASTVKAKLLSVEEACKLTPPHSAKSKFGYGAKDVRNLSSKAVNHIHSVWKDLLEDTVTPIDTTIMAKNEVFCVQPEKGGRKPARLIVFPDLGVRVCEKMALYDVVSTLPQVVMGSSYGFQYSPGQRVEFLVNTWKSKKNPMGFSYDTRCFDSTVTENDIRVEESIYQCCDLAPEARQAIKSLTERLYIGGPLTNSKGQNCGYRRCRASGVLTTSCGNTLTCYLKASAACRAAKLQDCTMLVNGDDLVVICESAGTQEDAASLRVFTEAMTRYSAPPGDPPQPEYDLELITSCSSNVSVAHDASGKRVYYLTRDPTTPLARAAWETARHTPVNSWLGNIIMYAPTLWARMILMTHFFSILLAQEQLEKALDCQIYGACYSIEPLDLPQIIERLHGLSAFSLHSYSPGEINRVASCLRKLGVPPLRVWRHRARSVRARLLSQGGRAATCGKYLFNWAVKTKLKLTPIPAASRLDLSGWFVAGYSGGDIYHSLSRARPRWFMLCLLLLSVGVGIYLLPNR

`Cc1cc(O)c(C(c2ccc(Cl)c(Cl)c2)c2c(O)cc(C)oc2=O)c(=O)o1` [Compound 8, 3,3'-[(3,4-Dichlorophenyl)methylene]bis(4-hydroxy-6-methyl-2H-pyran-2-one)] was tested, and the “% Inhibition of intracellular NS5B RdRp activity” value was “did not inhibit; also recorded: No inhibition”.
